Laboratory results published in patent US20030176456A1, “Methods for reducing alcohol cravings in chronic alcoholics” (priority 2001, published 2003).

Tests used:
HAD-1 rats [1] = type: in vivo, rat; details: i.p.; chlordiazepoxide 10 mg/kg, βCCt 15 mg/kg; 10 min open field
Method: (§1) Ambulatory count in the open field was recorded individually for 10 min in a plexiglas chamber (42 cm×42 cm 30 cm) using a Digiscan activity monitoring system (Acuscan Electronics, Columbus, Ohio, USA) (for details of the monitoring system see June et al., 1998d).
(§2) βCCt (15 mg/kg i.p.) and chlordiazepoxide (10 mg/kg i.p.) were administered 15 and 30 min, respectively, prior to the rats being placed in the open field. EtOH (1.25 g/kg) was given 5 min prior to placing the rats in the open field. When βCCt was given in combination with either chlordiazepoxide or EtOH, it was given 10 min prior to chlordiazepoxide and EtOH. As noted above, βCCt was administered in Tween-20 solution, while all other drugs were mixed in sterile saline. Animals were tested between 9 am-3 pm.
(§3) Ambulatory count in the open field was recorded individually for 10 min in a plexiglas chamber (42 cm×42 cm 30 cm) using a Digiscan activity monitoring system (Acuscan Electronics, Columbus, Ohio, USA) (for details of the monitoring system see June et al., 1998b).
(§4) βCCt (5-60 mg/kg i.p.) and chlordiazepoxide (2.5, 5, 10 mg/kg i.p.) were administered 15 and 30 min, respectively, prior to being placed in the plus maze or open field. EtOH (1.25 g/kg) was given 5 min prior to placing the rats in the open field. When βCCt was given in combination with either chlordiazepoxide or EtOH, it was given 10 min prior to chlordiazepoxide and EtOH. As noted above, βCCt was administered in Tween-20 solution, while all other drugs were mixed in sterile saline. Animals were tested between 9am-3 pm.

P rats = type: in vivo, rat; details: i.p.; chlordiazepoxide 10 mg/kg, βCCt 15 mg/kg; 10 min open field
Method: as §1, §2, §3, §4

HAD-1 rats [2] = type: in vivo, rat
Method: Rats were placed in the middle of the automated plus maze (Acuscan Electronics, Columbus, Ohio, USA) with two walled and open arms under dim illumination (for details see June et al., 1998b).
as §4
HAD-1 asnd P rats were randomly assigned to each of the […] drug treatment groups (Veh, 5, 15, 30, 60 mg/kg). A between group ANOVA with drug treatment as the independent factor was conducted for HAD-1 (n=8-12 per treatment group) [total N=42] and P (n=7-12 per treatment group) [total N=42] rats on the plus-maze test.

α1β3γ2 GABAA receptor = biological target: T1, α1β3γ2 GABAA receptor (Homo sapiens, UniProt P14867+P18507); details: recombinant receptors (Cox et al., 1995); cited from earlier work
T1 construct: expressed in transfected cells

mice [3] = details: doses as high as 60 mg/kg (Griebel et al., 1999); cited from earlier work
[4] = biological target: wild type BDZ receptors (cerebral cortical membranes); assay: Radioligand displacement at cerebral cortical membranes; type: binding; details: read-out: Displacement of [3H] flunitrazepam in vitro, IC50; rat cerebral cortical membranes; mean of three or more experiments
Method: [^3H] […] In brief, rats were sacrificed by decapitation, and the cerebral cortex removed. […] Tissue was resuspended in an equal volume of buffer and recentrifuged. This procedure was repeated a total of three times and the tissue resuspended in 50 volumes of buffer. Incubations (1 mL) consisted of tissue (0.3 mL), drug solution (0.1 mL), buffer (0.5 mL) and radioligand (0.1 mL). […] The IC50 values were estimated using Hill plots.

GABAA α1β3γ2 receptors = biological target: T2, GABAA α1β3γ2 receptors (Rattus norvegicus, UniProt P18508+P62813); assay: Xenopus oocyte expression assay, modulation of GABA current; type: cell-based; details: saturating 1-10 μM modulator with EC50 GABA (50 μM); mean±S.D.
T2 construct: expressed in transfected cells; host or cells: Xenopus laevis oocytes injected with cRNA

GABAA α2β3γ2 receptors = assay: as above; type: cell-based, rat; details: saturating 1-10 μM modulator with EC50 GABA (50 μM); mean±S.D.
GABAA α4β3γ2 receptors = assay: as above; type: cell-based, rat
rats = assay: Reversal of suppression produced by chlordiazepoxide; type: in vivo, rat; details: 7.5 & 15 mg/kg; preliminary studies
mice [5] = details: Cox et al., 1998; cited from earlier work

T1 sequence (P14867 28-456): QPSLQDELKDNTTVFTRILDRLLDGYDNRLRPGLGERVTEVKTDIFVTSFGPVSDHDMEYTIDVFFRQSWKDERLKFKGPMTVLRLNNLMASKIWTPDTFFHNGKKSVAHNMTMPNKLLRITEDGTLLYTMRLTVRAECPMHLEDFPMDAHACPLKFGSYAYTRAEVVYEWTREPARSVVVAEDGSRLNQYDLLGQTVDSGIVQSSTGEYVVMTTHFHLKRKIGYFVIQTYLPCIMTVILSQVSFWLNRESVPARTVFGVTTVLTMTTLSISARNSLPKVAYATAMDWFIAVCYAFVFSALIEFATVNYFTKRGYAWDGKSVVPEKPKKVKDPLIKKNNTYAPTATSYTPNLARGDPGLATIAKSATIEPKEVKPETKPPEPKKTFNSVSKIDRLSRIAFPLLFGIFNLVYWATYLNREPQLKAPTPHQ
T1 sequence (P28472 26-473 partner): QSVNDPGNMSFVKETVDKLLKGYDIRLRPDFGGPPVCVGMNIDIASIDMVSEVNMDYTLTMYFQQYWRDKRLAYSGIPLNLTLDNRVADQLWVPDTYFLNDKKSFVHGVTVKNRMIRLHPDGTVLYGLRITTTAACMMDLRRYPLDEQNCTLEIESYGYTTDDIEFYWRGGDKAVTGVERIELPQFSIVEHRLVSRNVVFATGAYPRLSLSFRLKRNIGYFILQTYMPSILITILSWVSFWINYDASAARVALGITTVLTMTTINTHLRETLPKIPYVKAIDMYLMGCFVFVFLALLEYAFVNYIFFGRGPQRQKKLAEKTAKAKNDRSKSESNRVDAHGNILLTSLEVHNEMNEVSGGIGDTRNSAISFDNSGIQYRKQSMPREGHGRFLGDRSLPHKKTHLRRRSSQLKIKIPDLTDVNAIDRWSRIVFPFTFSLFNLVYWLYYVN
T1 sequence (P18507 40-475): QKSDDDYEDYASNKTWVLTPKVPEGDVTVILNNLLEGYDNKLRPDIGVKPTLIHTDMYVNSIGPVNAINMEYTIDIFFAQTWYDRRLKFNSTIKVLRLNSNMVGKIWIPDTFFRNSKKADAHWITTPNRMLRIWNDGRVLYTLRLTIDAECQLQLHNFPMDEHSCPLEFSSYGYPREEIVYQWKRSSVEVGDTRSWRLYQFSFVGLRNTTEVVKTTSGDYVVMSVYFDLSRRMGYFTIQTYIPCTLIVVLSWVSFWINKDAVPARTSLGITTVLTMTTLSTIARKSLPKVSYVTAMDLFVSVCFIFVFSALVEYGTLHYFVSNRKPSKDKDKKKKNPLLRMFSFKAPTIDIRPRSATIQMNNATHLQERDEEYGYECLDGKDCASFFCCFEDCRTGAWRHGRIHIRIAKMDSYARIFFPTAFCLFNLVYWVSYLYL
T2 sequence (P62813 28-455): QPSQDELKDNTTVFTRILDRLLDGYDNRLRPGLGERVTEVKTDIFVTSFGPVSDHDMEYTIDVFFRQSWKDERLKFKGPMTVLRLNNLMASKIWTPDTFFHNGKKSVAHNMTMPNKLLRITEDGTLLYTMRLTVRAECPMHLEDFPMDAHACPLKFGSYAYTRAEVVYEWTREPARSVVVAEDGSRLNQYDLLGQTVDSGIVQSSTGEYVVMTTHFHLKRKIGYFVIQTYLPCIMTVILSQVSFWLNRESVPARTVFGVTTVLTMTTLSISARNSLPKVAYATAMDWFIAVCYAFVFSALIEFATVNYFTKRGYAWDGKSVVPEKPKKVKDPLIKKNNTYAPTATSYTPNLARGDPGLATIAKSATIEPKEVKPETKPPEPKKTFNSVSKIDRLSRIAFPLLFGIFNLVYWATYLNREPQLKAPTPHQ
T2 sequence (P63079 26-473 partner): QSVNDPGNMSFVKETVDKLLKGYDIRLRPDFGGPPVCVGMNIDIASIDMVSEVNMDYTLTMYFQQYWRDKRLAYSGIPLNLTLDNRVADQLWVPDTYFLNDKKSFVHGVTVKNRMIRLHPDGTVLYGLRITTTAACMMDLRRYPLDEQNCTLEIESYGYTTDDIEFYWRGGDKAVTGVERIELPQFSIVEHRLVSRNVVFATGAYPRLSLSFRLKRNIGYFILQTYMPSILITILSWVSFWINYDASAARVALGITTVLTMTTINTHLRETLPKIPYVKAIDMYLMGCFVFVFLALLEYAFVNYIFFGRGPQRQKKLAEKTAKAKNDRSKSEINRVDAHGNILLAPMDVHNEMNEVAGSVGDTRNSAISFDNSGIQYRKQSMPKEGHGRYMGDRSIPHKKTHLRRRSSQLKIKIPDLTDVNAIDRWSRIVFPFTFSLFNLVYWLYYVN
T2 sequence (P18508 39-466): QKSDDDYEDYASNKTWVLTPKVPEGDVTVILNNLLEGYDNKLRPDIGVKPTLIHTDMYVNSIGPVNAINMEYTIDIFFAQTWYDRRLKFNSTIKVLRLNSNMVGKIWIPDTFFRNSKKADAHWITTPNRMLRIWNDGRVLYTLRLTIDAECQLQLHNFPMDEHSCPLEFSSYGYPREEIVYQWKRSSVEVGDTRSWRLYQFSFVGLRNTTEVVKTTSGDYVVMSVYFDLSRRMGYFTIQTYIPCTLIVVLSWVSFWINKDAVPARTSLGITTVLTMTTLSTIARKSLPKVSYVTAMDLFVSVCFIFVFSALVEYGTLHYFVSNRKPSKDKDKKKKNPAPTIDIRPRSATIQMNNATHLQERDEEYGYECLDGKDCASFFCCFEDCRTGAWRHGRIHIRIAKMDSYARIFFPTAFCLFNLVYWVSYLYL

Structure (SMILES)	locomotor activity, drug given alone (HAD-1 rats [1])	locomotor activity, drug given alone (P rats)	sedation in the plus maze (HAD-1 rats [2]; 60 mg/kg i.p., data not shown)	effect on anxiolytic activity produced by chlordiazepoxide (5.0 mg/kg) (HAD-1 rats [2]; 5, 15 mg/kg i.p.)	number of closed arm entries (HAD-1 rats [2]; i.p.)	selectivity for A1 over the A5 subtype (α1β3γ2 GABAA receptor)	selectivity for GABAA1 over the A2 and A3 receptors (α1β3γ2 GABAA receptor)	intrinsic activity in the open field (mice [3])	IC50 [4]	% of GABA response, α1 (GABAA α1β3γ2 receptors)	% of GABA response, α2 (GABAA α2β3γ2 receptors)	% of GABA response, α4 (GABAA α4β3γ2 receptors)	reversal of suppression produced by chlordiazepoxide (2.5-10 mg/kg) (rats)	response in pentylenetetrazole seizure model (mice [5])
CC(C)(C)OC(=O)c1cc2c(cn1)[nH]c1ccccc12 [βCCt, β-carboline-3-carboxylate t-butyl ester]	did not produce any intrinsic effects	did not produce any intrinsic effects	marked sedative profile	neither dose of βCCt (5, 15 mg/kg, i.p.) altered the anxiolytic activity	without effect	> 110 fold	> 10 fold	failed to produce intrinsic activity	–	–	–	–	–	–
CCCOc1cc2c(cn1)[nH]c1ccccc12.Cl [3-PBC, 3-Propoxy-β-carboline hydrochloride]	–	–	–	–	–	–	–	–	0.011 µM	113±4%	116±7%	129±3%	reversed the suppression produced by chlordiazepoxide	“neutral” antagonist-like response
